Results published in US20220017863A1, “SIRT2-ABLATED CHIMERIC T CELLS” (H. Lee Moffitt Cancer Center and Research Institute, Inc., priority 2019, published 2022).

Tests used:
[1] = tested on: Pmel CD8+ T cells co-cultured with B16F10 target cells; assay: LDH release cytotoxicity assay of Pmel CD8+ T cells on B16F10 targets; type: cell-based, mouse; conditions: gp100-stimulated Sirt2KO (Sirt2−/−) Pmel T cells on B16F10 targets, 10 mM 2-DG
Method: Evaluation of functional cytotoxic activity was performed using Pierce™ LDH Cytotoxicity Assay Kit (ThermoFisher Scientific) according to the manufacturer's protocol. B16F10 cells were used as targets. Mouse CD3^+ TILs isolated from subcutaneous B16F10 tumor nodules and CD8^+ enriched T cells from gp100-stimulated Pmel splenocytes were used as effector cells. Briefly, target B16F10 tumor cells were co-cultured with effector cells in 96-well round-bottom microplates at the indicated effector:target ratios. After 6 hours, the percentage of specific LDH release was calculated according to the following formula: % cell lysis=(experimental value effector cells spontaneous release target cells spontaneous release)×100/(target cells maximum release target cells spontaneous release), where “experimental” corresponds to the experimental signal value, “effector spontaneous” to spontaneous release of LDH from effector cells alone, “target spontaneous” to spontaneous release of LDH from target cells alone and “maximum release” to the maximum release of LDH from target cells in medium containing 1% Triton X-100.
Evaluation of functional cytotoxic activity was performed using Pierce™ LDH Cytotoxicity Assay Kit (Thermo Fisher Scientific) according to the manufacturer's protocol. […]

[2] = tested on: CD3+ TILs from B16F10 tumor nodules; assay: IFN-γ ELISPOT on mouse CD3+ TILs re-challenged with irradiated B16F10 cells; type: cell-based; conditions: CD3+ TILs from subcutaneous B16F10 nodules of Sirt2KO versus WT mice
Method: Lymphocytes from subcutaneous tumors were isolated by dicing the tissues and enzymatic digestion in PBS containing collagenase type 4 (2 mg/ml, Worthington Biochemical) and DNase I (0.25 mg/ml, Sigma) for 45 min with occasional shaking at 37° C. Cell suspensions were then twice filtered through 100 μm and 40 μm cell strainers (ThermoFisher Scientific) to single-cell suspension followed by PBS wash and red blood cell lysis using RBC Lysis Buffer (Biolegend). TILs were finally isolated by density gradient centrifugation using Percoll (GE Healthcare) and further purified using CD3c MicroBeads Kit™ (Miltenyi Biotec) according to the manufacturer's instructions. […]
(§1) The number of IFN-γ producing cells was evaluated in an ELISPOT assay. […] After washing steps and biotinylated anti-IFN-γ antibody (R4-6A2, ThermoFisher Scientific)+Streptavidin-HRP (BD Bioscience) labeling, spots were detected using AEC Substrate Kit (BD Biosciences) and counted using an AID ELISPOT Reader System (Autoimmun Diagnostika GmbH). […]
(§2) The number of IFN-γ producing cells was evaluated in an ELISPOT assay. […] After washing steps and successive biotinylated anti-IFN-γ antibody (R4-6A2, Mabtech, Inc.) and Streptavidin-HRP (BD Bioscience) labeling, spots were detected using AEC Substrate Kit (BD Biosciences) and counted using an AID ELISPOT Reader System (Autoimmun Diagnostika GmbH).

[3] = tested on: Pmel T cells; assay: IFN-γ ELISPOT on gp100-stimulated Pmel T cells; type: cell-based, mouse; conditions: gp100-stimulated Sirt2KO (Sirt2−/−) Pmel T cells
Method: Spleens and/or Lymph nodes (LN) were collected from WT, Sirt2KO, Pmel/WT, Pmel/Sirt2KO mice and processed into single-cell suspensions. CD3^+, CD4^+ and CD8^+ T cells were negatively enriched using Mouse Pan T cell, CD4^+ T cell and CD8^+ T cell isolation Kits™ respectively according to the manufacturers' instructions. The purity of the isolated cells was confirmed by flow cytometry (>95%). Purified T cells were cultured in completed RPMI 1640 medium (ThermoFisher Scientific) supplemented with 10% (vol/vol) Fetal bovine serum (FBS, Biowest) and 1% (vol/vol) penicillin/streptomycin (P/S, Thomas Scientific Inc). […]
as §1, §2

[4] = biological target: T1, SIRT2 (Homo sapiens, UniProt Q8IXJ6); conditions: cited from earlier work
T1 sequence (Q8IXJ6 1-389): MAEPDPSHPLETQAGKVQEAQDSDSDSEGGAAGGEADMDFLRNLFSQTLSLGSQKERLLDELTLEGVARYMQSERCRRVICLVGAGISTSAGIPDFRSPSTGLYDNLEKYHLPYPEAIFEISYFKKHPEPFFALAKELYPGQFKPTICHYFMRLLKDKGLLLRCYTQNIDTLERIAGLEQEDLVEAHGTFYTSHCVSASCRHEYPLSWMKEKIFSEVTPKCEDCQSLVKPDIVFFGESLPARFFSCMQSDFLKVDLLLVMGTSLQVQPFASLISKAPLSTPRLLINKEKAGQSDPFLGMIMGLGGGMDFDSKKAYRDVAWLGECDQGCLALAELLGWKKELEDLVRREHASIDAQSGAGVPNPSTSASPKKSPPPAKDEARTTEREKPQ

[5] = biological target: T2, SIRT3 (Homo sapiens, UniProt Q9NTG7); conditions: cited from earlier work
T2 sequence (Q9NTG7 1-399): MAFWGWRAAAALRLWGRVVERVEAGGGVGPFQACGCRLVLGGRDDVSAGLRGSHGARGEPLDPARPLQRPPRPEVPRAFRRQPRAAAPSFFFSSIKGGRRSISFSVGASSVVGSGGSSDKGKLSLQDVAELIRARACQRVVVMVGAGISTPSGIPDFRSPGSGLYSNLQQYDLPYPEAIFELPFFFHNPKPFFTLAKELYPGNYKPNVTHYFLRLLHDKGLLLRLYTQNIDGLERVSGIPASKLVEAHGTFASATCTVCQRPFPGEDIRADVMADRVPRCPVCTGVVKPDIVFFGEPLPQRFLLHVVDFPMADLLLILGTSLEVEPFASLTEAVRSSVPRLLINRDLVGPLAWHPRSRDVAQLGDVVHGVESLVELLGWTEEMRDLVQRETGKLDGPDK

[6] = biological target: T3, SIRT1 (Homo sapiens, UniProt Q96EB6); conditions: cited from earlier work
T3 sequence (Q96EB6 1-747): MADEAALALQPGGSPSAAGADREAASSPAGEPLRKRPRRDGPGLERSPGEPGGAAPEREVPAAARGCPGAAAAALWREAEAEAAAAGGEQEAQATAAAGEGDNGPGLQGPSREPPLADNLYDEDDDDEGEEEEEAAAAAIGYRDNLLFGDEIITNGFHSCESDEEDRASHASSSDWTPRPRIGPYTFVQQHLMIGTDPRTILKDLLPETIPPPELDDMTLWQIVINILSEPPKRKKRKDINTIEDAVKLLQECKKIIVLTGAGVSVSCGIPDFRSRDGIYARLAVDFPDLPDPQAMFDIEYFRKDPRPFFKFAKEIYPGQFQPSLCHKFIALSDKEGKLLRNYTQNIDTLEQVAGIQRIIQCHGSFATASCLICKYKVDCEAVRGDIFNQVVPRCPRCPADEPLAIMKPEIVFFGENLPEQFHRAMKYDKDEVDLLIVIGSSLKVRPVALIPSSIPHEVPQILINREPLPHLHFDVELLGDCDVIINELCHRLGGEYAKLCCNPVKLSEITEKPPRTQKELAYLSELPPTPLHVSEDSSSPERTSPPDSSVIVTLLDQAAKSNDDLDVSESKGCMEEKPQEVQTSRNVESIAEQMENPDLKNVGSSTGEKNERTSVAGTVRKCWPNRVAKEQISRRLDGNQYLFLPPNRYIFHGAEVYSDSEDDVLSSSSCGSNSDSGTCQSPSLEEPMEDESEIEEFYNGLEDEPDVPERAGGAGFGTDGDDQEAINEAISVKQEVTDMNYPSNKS

## O=CC[C@@H](O)[C@H](O)[C@H](O)CO [2-DG, 2-deoxyglucose]
[1]
  cytotoxicity: profoundly suppressed
[2]
  IFN-γ release: suppressed
[3]
  IFN-γ release: profoundly suppressed

## CCOC(=O)c1ccc(NC(=O)c2ccc3c(c2)C2C4CCC(C4)C2C(c2ccccc2)N3)cc1 (stereo not drawn) [AEM2]
[4]
  IC50: 3.8 µM

## O=C(Nc1cccc([N+](=O)[O-])c1)c1cccc(S(=O)(=O)N2CCCCCC2)c1 [AK-1]
[5]
  IC50: > 50 µM
[6]
  IC50: > 50 µM
